Measured values taken from PubChem BioAssay (NCI).
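Compound exposure: 48 hours, 5 concentrations, 96-well plates. TGI: concentration producing complete growth inhibition.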

Test system: OVCAR-4 ovarian
Assay: NCI tumour cell line growth inhibition, 48 h

| Structure (SMILES) | TGI [µM] |
| --- | --- |
| COc1cccc(C2c3cc4c(cc3OC(C)(N3CCCC3)C2C)OCO4)c1 (configuration not stated) | 75 |
| CCSC1=N/C(=C\c2ccc(N(C)C)cc2)C(Cl)=N1 | > 100 |
| COC1(OC)CCCc2c1no[n+]2[O-] | > 100 |
| CC1=C(/C=C/C(C)=C/C=C/C(C)=C/C(=O)OC2CC(n3cc(F)c(=O)[nH]c3=O)OC2CO)C(C)(C)CCC1 (configuration not stated) | 21.5 |
| CC(C)C(C/C=C1\CC(CO)(COC(=O)C(C)(C)C)OC1=O)C(C)C (configuration not stated) | 31.9 |
| O=C1C=C(NCCOCCO)C(=O)c2c(O)ccc(O)c21 | 33.4 |
| CC(C)[Si]1(C(C)C)OCC2OC3(CO)C(Oc4nc(=O)ccn43)C2O[Si](C(C)C)(C(C)C)O1 (configuration not stated) | 26.7 |

Test system: NCI-H460 lung
Assay: NCI tumour cell line growth inhibition, 48 h

| Structure (SMILES) | TGI [µM] |
| --- | --- |
| Cn1c2c(c3ccccc31)CCN1C(=O)CN(C(=O)C3CCCCC3)CC21 (configuration not stated) | > 100 |
| CCOC(=O)c1nc2cc(F)c(N3CCOCC3)cc2[nH]c1=O | > 100 |
| CCCC(=O)N1CCN(c2ccc3c(c2)OC(C)O3)CC1 (configuration not stated) | > 100 |
| COC(=O)C1=C(O)c2ccc(Cl)cc2S(=O)(=O)N1C | > 100 |
| C=C(Nc1nc2ccc(C)cc2s1)C(=O)C(CC)C(=O)C(CC)CC1C(=O)NC(=O)NC1=O (configuration not stated) | > 100 |
| CCOC(=O)[C@H](C)OC(=O)[C@@](C)(NC(=O)c1ccccc1C(=O)OC)[C@@H]1NC=C(C(=O)OC)CS1 | > 100 |
| Cn1c2ccccc2c(=O)c2cccc(C(=O)NC(CS)C(=O)O)c21 (configuration not stated) | > 100 |
| COc1ccc(N=NC(=O)NC(CC(C)C)C(=O)NC(C)C(=O)O)cc1 (configuration not stated) | > 89 |
| CC(=O)OCC1OC(n2c(C)cc(C)c(C#N)c2=S)C(OC(C)=O)C(OC(C)=O)C1OC(C)=O (configuration not stated) | > 100 |
| COC(=O)NC(C(F)(F)F)(C(F)(F)F)P1(=O)OCCCO1 | 84.6 |
| CCOC(=O)NNC(=O)NCCCCNC(=O)NNC(=O)OCC | > 100 |
| Cc1c2cccc-2c(OCCO)cc2c3ccccc3n(C)c12 | 18.3 |
| c1ccc2c(c1)SCCC2NC1=NCCO1 (configuration not stated) | > 100 |
| C=CCN(C(=O)CNC(=O)C(F)(F)F)c1cc(OCc2ccccc2)c2c(c1)c(C)cn2S(=O)(=O)c1ccccc1 | > 100 |
| COC1=C(Br)[C@H](O)[C@@]2(C=C1Br)CC(C(=O)NCCCOc1c(Br)cc(C(O)CNC(C)=O)cc1Br)=NO2 (some centres not stated) | > 10 |
| COc1ccc(C[C@H]2COC(=O)[C@@H]2Cc2cccc(Br)c2)cc1OC | 67.2 |
| CSc1ccsc1-c1sc(-c2cc(SC)c(-c3sc(-c4cc(SC)c(-c5sccc5SC)s4)cc3SC)s2)cc1SC | > 100 |
| COc1cccc(C2c3cc4c(cc3OC(C)(N3CCCC3)C2C)OCO4)c1 (configuration not stated) | 26.4 |
| CCSC1=N/C(=C\c2ccc(N(C)C)cc2)C(Cl)=N1 | > 100 |
| COC1(OC)CCCc2c1no[n+]2[O-] | > 100 |
| CC1=C(/C=C/C(C)=C/C=C/C(C)=C/C(=O)OC2CC(n3cc(F)c(=O)[nH]c3=O)OC2CO)C(C)(C)CCC1 (configuration not stated) | 15.3 |
| CC(C)C(C/C=C1\CC(CO)(COC(=O)C(C)(C)C)OC1=O)C(C)C (configuration not stated) | 31 |
| O=C1C=C(NCCOCCO)C(=O)c2c(O)ccc(O)c21 | > 100 |
| CC(C)[Si]1(C(C)C)OCC2OC3(CO)C(Oc4nc(=O)ccn43)C2O[Si](C(C)C)(C(C)C)O1 (configuration not stated) | 29.2 |

Test system: OVCAR-8 ovarian
Assay: NCI tumour cell line growth inhibition, 48 h

| Structure (SMILES) | TGI [µM] |
| --- | --- |
| Cn1c2c(c3ccccc31)CCN1C(=O)CN(C(=O)C3CCCCC3)CC21 (configuration not stated) | > 100 |
| CCOC(=O)c1nc2cc(F)c(N3CCOCC3)cc2[nH]c1=O | > 100 |
| CCCC(=O)N1CCN(c2ccc3c(c2)OC(C)O3)CC1 (configuration not stated) | > 100 |
| C=C(Nc1nc2ccc(C)cc2s1)C(=O)C(CC)C(=O)C(CC)CC1C(=O)NC(=O)NC1=O (configuration not stated) | > 100 |
| CCOC(=O)[C@H](C)OC(=O)[C@@](C)(NC(=O)c1ccccc1C(=O)OC)[C@@H]1NC=C(C(=O)OC)CS1 | > 100 |
| Cn1c2ccccc2c(=O)c2cccc(C(=O)NC(CS)C(=O)O)c21 (configuration not stated) | > 100 |
| COc1ccc(N=NC(=O)NC(CC(C)C)C(=O)NC(C)C(=O)O)cc1 (configuration not stated) | > 100 |
| CC(=O)OCC1OC(n2c(C)cc(C)c(C#N)c2=S)C(OC(C)=O)C(OC(C)=O)C1OC(C)=O (configuration not stated) | > 100 |
| COC(=O)NC(C(F)(F)F)(C(F)(F)F)P1(=O)OCCCO1 | 83.3 |
| CCOC(=O)NNC(=O)NCCCCNC(=O)NNC(=O)OCC | > 100 |
| COC(=O)c1nsc(OC)c1Cl | > 100 |
| Cc1c2cccc-2c(OCCO)cc2c3ccccc3n(C)c12 | 10.1 |
| c1ccc2c(c1)SCCC2NC1=NCCO1 (configuration not stated) | > 100 |
| C=CCN(C(=O)CNC(=O)C(F)(F)F)c1cc(OCc2ccccc2)c2c(c1)c(C)cn2S(=O)(=O)c1ccccc1 | > 100 |
| COC1=C(Br)[C@H](O)[C@@]2(C=C1Br)CC(C(=O)NCCCOc1c(Br)cc(C(O)CNC(C)=O)cc1Br)=NO2 (some centres not stated) | > 10 |
| COc1ccc(C[C@H]2COC(=O)[C@@H]2Cc2cccc(Br)c2)cc1OC | 69.6 |
| CSc1ccsc1-c1sc(-c2cc(SC)c(-c3sc(-c4cc(SC)c(-c5sccc5SC)s4)cc3SC)s2)cc1SC | > 100 |
| COc1cccc(C2c3cc4c(cc3OC(C)(N3CCCC3)C2C)OCO4)c1 (configuration not stated) | 64.1 |
| CCSC1=N/C(=C\c2ccc(N(C)C)cc2)C(Cl)=N1 | > 100 |
| COC1(OC)CCCc2c1no[n+]2[O-] | > 100 |
| CC1=C(/C=C/C(C)=C/C=C/C(C)=C/C(=O)OC2CC(n3cc(F)c(=O)[nH]c3=O)OC2CO)C(C)(C)CCC1 (configuration not stated) | 23.6 |
| CC(C)C(C/C=C1\CC(CO)(COC(=O)C(C)(C)C)OC1=O)C(C)C (configuration not stated) | 31.1 |
| O=C1C=C(NCCOCCO)C(=O)c2c(O)ccc(O)c21 | 86.5 |
| CC(C)[Si]1(C(C)C)OCC2OC3(CO)C(Oc4nc(=O)ccn43)C2O[Si](C(C)C)(C(C)C)O1 (configuration not stated) | 31.8 |

Test system: HS 578T breast
Assay: NCI tumour cell line growth inhibition, 48 h

| Structure (SMILES) | TGI [µM] |
| --- | --- |
| Cn1c2c(c3ccccc31)CCN1C(=O)CN(C(=O)C3CCCCC3)CC21 (configuration not stated) | > 100 |
| CCOC(=O)c1nc2cc(F)c(N3CCOCC3)cc2[nH]c1=O | > 100 |
